Test [1] concerns the target T1, aggregated synthetic Aβ40 (Homo sapiens, UniProt P05067).
T1 construct: Synthetic Aβ40 is aggregated at a concentration of 50 μM
As to the kind of experiment: Thiazin-red R displacement fluorescence assay on aggregated A-beta. The format is binding. As to conditions: displacement of Thiazin-red R from aggregated Aβ40; compound 0.3 nM to 10000 nM; 30 min room temperature; Ex 531 nm/Em 595 nm.

The target in test [2] is T2, aggregated recombinant human-microtubule associated protein Tau (Homo sapiens, UniProt P10636).
T2 construct: Recombinant human-microtubule associated protein Tau purified from E. coli is aggregated at a concentration of 5 μM with Arachidonic Acid (100 μM) in Tris 10 mM pH8, 24 h at 37° C
T2 sequence (P10636 whole entry): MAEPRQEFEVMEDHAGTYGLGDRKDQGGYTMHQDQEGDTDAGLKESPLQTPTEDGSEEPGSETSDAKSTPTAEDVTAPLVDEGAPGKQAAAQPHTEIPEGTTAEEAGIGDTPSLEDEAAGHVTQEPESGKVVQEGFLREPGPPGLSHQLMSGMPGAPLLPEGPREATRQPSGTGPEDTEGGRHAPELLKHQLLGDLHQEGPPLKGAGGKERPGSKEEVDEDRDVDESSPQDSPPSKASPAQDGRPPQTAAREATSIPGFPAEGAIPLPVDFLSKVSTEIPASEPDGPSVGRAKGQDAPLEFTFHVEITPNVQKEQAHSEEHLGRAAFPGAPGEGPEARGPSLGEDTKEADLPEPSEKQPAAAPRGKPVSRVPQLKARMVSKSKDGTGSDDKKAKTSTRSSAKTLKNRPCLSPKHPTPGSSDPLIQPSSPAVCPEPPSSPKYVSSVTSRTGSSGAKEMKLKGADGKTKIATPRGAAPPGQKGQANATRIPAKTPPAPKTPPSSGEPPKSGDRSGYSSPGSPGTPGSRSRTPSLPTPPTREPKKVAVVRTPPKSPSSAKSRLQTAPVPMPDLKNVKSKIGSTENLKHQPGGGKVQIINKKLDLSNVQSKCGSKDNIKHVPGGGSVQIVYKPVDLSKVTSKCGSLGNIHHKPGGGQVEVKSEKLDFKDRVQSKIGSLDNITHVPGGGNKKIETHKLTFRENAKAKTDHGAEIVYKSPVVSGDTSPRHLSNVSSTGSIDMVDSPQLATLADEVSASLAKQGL
As to the kind of experiment: Thiazin-red R displacement fluorescence assay on aggregated Tau. The format is binding. The settings on record: displacement of Thiazin-red R from aggregated Tau; compound 0.3 nM to 10000 nM; 30 min room temperature; Ex 531 nm/Em 595 nm.

Each structure is given as a SMILES string. Where only a bound is given, the exact number is not on record here.

T1 sequence (P05067 672-711 limits assumed): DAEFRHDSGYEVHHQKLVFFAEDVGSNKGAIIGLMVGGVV

As for `COc1cc(/C=c2\sc3nc(-c4cccc(C#N)c4)cn3c2=O)cc(Br)c1O` [Example 45, 3-{2-[1-(3-Bromo-4-hydroxy-5-methoxy-phenyl)-meth-(Z)-ylidene]-3-oxo-2,3-dihydro-imidazo[2,1-b]thiazol-6-yl}-benzonitrile], the IC50 in test [1] was above 10000 nM; in test [2] it was 25 nM.
On to `CCCOc1cc(/C=c2\sc3nc(-c4ccc(-n5cnc(C)c5)nc4)cn3c2=O)cc(Cl)c1O` [Example 112, 2-[1-(3-Chloro-4-hydroxy-5-propoxy-phenyl)-meth-(Z)-ylidene]-6-[6-(4-methyl-imidazol-1-yl)-pyridin-3-yl]-imidazo[2,1-b]thiazol-3-one], for which the IC50 amounted to 493 nM in test [1] and 8 nM in test [2].
On to `COc1cc(/C=c2\sc3nc(-c4ccc(C(F)(F)F)c(F)c4)cn3c2=O)cc(Cl)c1O` [Example 28, 2-[1-(3-Chloro-4-hydroxy-5-methoxy-phenyl)-meth-(Z)-ylidene]-6-(3-fluoro-4-trifluoromethyl-phenyl)-imidazo[2,1-b]thiazol-3-one], for which the IC50 came to 1060 nM in test [1] and 23 nM in test [2].
With `CCCOc1cc(/C=c2\sc3nc(-c4cnc[nH]4)cn3c2=O)cc(Cl)c1O` [Example 119, 2-[1-(3-Chloro-4-hydroxy-5-propoxy-phenyl)-meth-(Z)-ylidene]-6-(3H-imidazol-4-yl)-imidazo[2,1-b]thiazol-3-one], the IC50 in test [1] worked out at 3120 nM; in test [2] it was 60 nM.
Regarding `COc1cc(/C=c2\sc3nc(-c4cccc(C(=O)N(C)CCc5cccc(F)c5)c4)cn3c2=O)cc(Cl)c1O` [Example 118, 3-{2-[1-(3-Chloro-4-hydroxy-5-methoxy-phenyl)-meth-(Z)-ylidene]-3-oxo-2,3-dihydro-imidazo[2,1-b]thiazol-6-yl}-N-[2-(3-fluoro-phenyl)-ethyl]-N-methyl-benzamide], the IC50 in test [1] was above 10000 nM; in test [2], 12.9 nM.
The like results for `COc1cc(/C=c2\sc3nc(-c4ccc(Cl)cc4)cn3c2=O)cc(OCCF)c1O` [Example 27, 6-(4-Chloro-phenyl)-2-[1-(3-(2-fluoro-ethoxy)-4-hydroxy-5-methoxy-phenyl)-meth-(Z)-ylidene]-imidazo[2,1-b]thiazol-3-one] were, in that order, 7 nM and 1 nM.
The like results for `COc1cc(/C=c2\sc3nc(-c4ccc(C(=O)N(C)CCF)cc4)cn3c2=O)cc(F)c1O` [Example 146] were, in that order, 1010 nM and 48 nM.
As for `COc1cc(/C=c2\sc3nc(-c4ccc(Cl)cc4)cn3c2=O)cc(Br)c1O` [Example 7, 6-(4-Chloro-phenyl)-2-[1-(3-bromo-4-hydroxy-5-methoxy-phenyl)-meth-(Z)-ylidene]-imidazo[2,1-b]thiazol-3-one], the IC50 in test [1] was found to be 18 nM; in test [2], 2 nM.
As for `COc1cc(/C=c2\sc3nc(-c4ccccc4C)cn3c2=O)cc(F)c1O` [Example 9, 2-[1-(3-Fluoro-4-hydroxy-5-methoxy-phenyl)-meth-(Z)-ylidene]-6-o-tolyl-imidazo[2,1-b]thiazol-3-one], the IC50 came to 706 nM in test [1] and 105 nM in test [2].
`COc1cc(/C=c2\sc3nc(-c4cccc(C(N)=O)c4)cn3c2=O)cc(Cl)c1O` [Example 86, 3-{2-[1-(3-Chloro-4-hydroxy-5-methoxy-phenyl)-meth-(Z)-ylidene]-3-oxo-2,3-dihydro-imidazo[2,1-b]thiazol-6-yl}-benzamide]: the results for the IC50 in test [1] and in test [2] were 1240 nM and 1 nM, respectively.
In the case of `COc1cc(/C=c2\sc3nc(-c4ccc(F)c(C(F)(F)F)c4)cn3c2=O)cc(Br)c1O` [Example 46, 2-[1-(3-bromo-4-hydroxy-5-methoxy-phenyl)-meth-(Z)-ylidene]-6-(4-fluoro-3-(trifluoromethyl)-phenyl)-imidazo[2,1-b]thiazol-3-one], the IC50 worked out at 5910 nM in test [1] and 28 nM in test [2].

As a reminder, the IC50 is the midpoint of a concentration-inhibition curve.

The values above are taken from patent US20150157739A1, “Imidazo[2,1]thiazol-3-one derivatives” (Hoffmann-La Roche Inc., priority 2012, published 2015).
